Patent US20230284620A1, “MIXTURES OF PYRIDAZINES AS HERBICIDAL COMPOSITIONS” (SYNGENTA CROP PROTECTION AG, priority 2020, published 2023)
“And” between values parts separate entries of the source, which are not always exact repeats. Identical values can stand only once.

Tests used:
Experiment in all cases: Post-emergence glasshouse herbicide test, visual phytotoxicity
Format in all cases: in vivo
Settings in all cases: 13 days
[1] = tested on: Setaria faberi (SETFA)
Method: (§1) Seeds of Setaria faberi (SETFA), Echinochloa crus-galli (ECHCG), Digitaria sanguinalis (DIGSA), Lolium perenne (LOLPE), Alopecurus myosuroides (ALOMY), Chenopodium album (CHEAL), Ipomoea hederacea (IPOHE), Stellaria media (STEME), Abutilon threophrasti (ABUTH) and Amaranthus retroflexus (AMARE) were sown in standard sterilised soil in pots. After cultivation for 8 days under controlled conditions in a glasshouse (at 24/19° C., day/night; 16 hours light; no humidity control), the plants were sprayed at 500 l/Ha with an aqueous spray solution derived from the formulation of the technical active ingredients in a small amount of acetone and a solvent and emulsifier mixture referred to as IF50 (11.12% Emulsogen EL360 TM+44.44% N-methylpyrrolidone+44.44% Dowanol DPM glycol ether), to create a 50 g/l solution which was then diluted using 0.2% Genapol X080 (CAS Number: 9043-30-5) as diluent to give the desired final dose of test compound.
(§2) Where active ingredients were applied as mixtures, aqueous spray solutions were prepared as above, containing both active ingredients.
(§3) The test plants were then grown under controlled conditions in a glasshouse (at 24/18° C., day/night; 15 hours light; 50% humidity) and watered twice daily. After 13 days, the test was evaluated visually for percentage phytotoxicity to the plants (where 100=total damage to plant; 0=no damage to plant; and NC=not captured) when compared to control untreated plants. Two to four replicates were applied for each treatment in a randomised block test design.
(§4) 22., E=X+Y−(X*Y/100), where • X=average percent phytotoxicity of herbicide A when applied at a certain rate • Y=average percent phytotoxicity using herbicide B when applied at a certain rate • E=the expected effect of the mixture of herbicides A and B as calculated from the Colby formula.

[2] = tested on: Digitaria sanguinalis (DIGSA)
Method: as §1, §2, §3, §4

[3] = tested on: Abutilon threophrasti (ABUTH)
Method: as §1, §2, §3, §4

[4] = tested on: Stellaria media (STEME)
Method: as §1, §2, §3, §4

[5] = tested on: Echinochloa crus-galli (ECHCG)
Method: as §1, §2, §3, §4

[6] = tested on: Amaranthus retroflexus (AMARE)
Method: as §1, §2, §3, §4

[7] = tested on: Chenopodium album (CHEAL)
Method: as §1, §2, §3, §4

[8] = tested on: Alopecurus myosuroides (ALOMY)
Method: as §1, §2, §3, §4

[9] = tested on: Lolium perenne (LOLPE)
Method: as §1, §2, §3, §4

[10] = tested on: Ipomoea hederacea (IPOHE)
Method: as §1, §2, §3, §4

CC1(C)CN(Cc2ccccc2NS(=O)(=O)C(F)(F)F)C1=O [B-IV]
percentage phytotoxicity SETFA ([1]; 31.25 g/ha): 0% | percentage phytotoxicity SETFA ([1]; 62.5 g/ha): 0% | percentage phytotoxicity SETFA ([1]; 125 g/ha): 23% and 22% | percentage phytotoxicity SETFA ([1]; 250 g/ha): 48% | percentage phytotoxicity SETFA ([1]; 500 g/ha): 50% | percentage phytotoxicity DIGSA ([2]; 31.25 g/ha): 0% | percentage phytotoxicity DIGSA ([2]; 62.5 g/ha): 0% | percentage phytotoxicity DIGSA ([2]; 125 g/ha): 18% | percentage phytotoxicity DIGSA ([2]; 250 g/ha): 38% | percentage phytotoxicity DIGSA ([2]; 500 g/ha): 70% | percentage phytotoxicity ABUTH ([3]; 31.25 g/ha): 15% | percentage phytotoxicity ABUTH ([3]; 62.5 g/ha): 3% | percentage phytotoxicity ABUTH ([3]; 125 g/ha): 13% | percentage phytotoxicity ABUTH ([3]; 250 g/ha): 45% | percentage phytotoxicity ABUTH ([3]; 500 g/ha): 60% | percentage phytotoxicity STEME ([4]; 31.25 g/ha): 68% | percentage phytotoxicity STEME ([4]; 62.5 g/ha): 78% | percentage phytotoxicity STEME ([4]; 125 g/ha): 80% | percentage phytotoxicity STEME ([4]; 250 g/ha): 80% | percentage phytotoxicity STEME ([4]; 500 g/ha): 83% | percentage phytotoxicity ECHCG ([5]; 31.25 g/ha): 0% | percentage phytotoxicity ECHCG ([5]; 62.5 g/ha): 0% | percentage phytotoxicity ECHCG ([5]; 125 g/ha): 45% | percentage phytotoxicity ECHCG ([5]; 250 g/ha): 53% | percentage phytotoxicity ECHCG ([5]; 500 g/ha): 63% | percentage phytotoxicity AMARE ([6]; 31.25 g/ha): 73% | percentage phytotoxicity AMARE ([6]; 62.5 g/ha): 80% | percentage phytotoxicity AMARE ([6]; 125 g/ha): 83% | percentage phytotoxicity AMARE ([6]; 250 g/ha): 85% | percentage phytotoxicity AMARE ([6]; 500 g/ha): 83% | percentage phytotoxicity CHEAL ([7]; 31.25 g/ha): 15% | percentage phytotoxicity CHEAL ([7]; 62.5 g/ha): 30% | percentage phytotoxicity CHEAL ([7]; 125 g/ha): 15% | percentage phytotoxicity CHEAL ([7]; 250 g/ha): 20% | percentage phytotoxicity CHEAL ([7]; 500 g/ha): 58% | percentage phytotoxicity ALOMY ([8]; 31.25 g/ha): 0% | percentage phytotoxicity ALOMY ([8]; 62.5 g/ha): 0% | percentage phytotoxicity ALOMY ([8]; 125 g/ha): 23% | percentage phytotoxicity ALOMY ([8]; 250 g/ha): 50% | percentage phytotoxicity ALOMY ([8]; 500 g/ha): 73% | percentage phytotoxicity LOLPE ([9]; 31.25 g/ha): 0% | percentage phytotoxicity LOLPE ([9]; 62.5 g/ha): 0% | percentage phytotoxicity LOLPE ([9]; 125 g/ha): 33% | percentage phytotoxicity LOLPE ([9]; 250 g/ha): 48% | percentage phytotoxicity LOLPE ([9]; 500 g/ha): 80% | percentage phytotoxicity IPOHE ([10]; 31.25 g/ha): 75% | percentage phytotoxicity IPOHE ([10]; 62.5 g/ha): 35% | percentage phytotoxicity IPOHE ([10]; 125 g/ha): 88% | percentage phytotoxicity IPOHE ([10]; 250 g/ha): 89% | percentage phytotoxicity IPOHE ([10]; 500 g/ha): 93%

CS(=O)(=O)c1ccc(C(=O)C2C(=O)CCCC2=O)c(Cl)c1OCCC1OCCO1 [B-II]
percentage phytotoxicity SETFA ([1]; 0.625 g/ha): 0% | percentage phytotoxicity SETFA ([1]; 1.25 g/ha): 3% | percentage phytotoxicity SETFA ([1]; 2.5 g/ha): 0% | percentage phytotoxicity SETFA ([1]; 5 g/ha): 5% | percentage phytotoxicity SETFA ([1]; 10 g/ha): 0% | percentage phytotoxicity DIGSA ([2]; 0.625 g/ha): 0% | percentage phytotoxicity DIGSA ([2]; 1.25 g/ha): 5% | percentage phytotoxicity DIGSA ([2]; 2.5 g/ha): 0% | percentage phytotoxicity DIGSA ([2]; 5 g/ha): 10% | percentage phytotoxicity DIGSA ([2]; 10 g/ha): 3% | percentage phytotoxicity ABUTH ([3]; 0.625 g/ha): 0% | percentage phytotoxicity ABUTH ([3]; 1.25 g/ha): 40% | percentage phytotoxicity ABUTH ([3]; 2.5 g/ha): 43% | percentage phytotoxicity ABUTH ([3]; 5 g/ha): 58% | percentage phytotoxicity ABUTH ([3]; 10 g/ha): 70% | percentage phytotoxicity STEME ([4]; 0.625 g/ha): 0% | percentage phytotoxicity STEME ([4]; 1.25 g/ha): 10% | percentage phytotoxicity STEME ([4]; 2.5 g/ha): 28% | percentage phytotoxicity STEME ([4]; 5 g/ha): 53% | percentage phytotoxicity STEME ([4]; 10 g/ha): 70% | percentage phytotoxicity ECHCG ([5]; 0.625 g/ha): 0% | percentage phytotoxicity ECHCG ([5]; 1.25 g/ha): 5% | percentage phytotoxicity ECHCG ([5]; 2.5 g/ha): 0% | percentage phytotoxicity ECHCG ([5]; 5 g/ha): 8% | percentage phytotoxicity ECHCG ([5]; 10 g/ha): 5% | percentage phytotoxicity AMARE ([6]; 0.625 g/ha): 0% | percentage phytotoxicity AMARE ([6]; 1.25 g/ha): 13% | percentage phytotoxicity AMARE ([6]; 2.5 g/ha): 25% | percentage phytotoxicity AMARE ([6]; 5 g/ha): 53% | percentage phytotoxicity AMARE ([6]; 10 g/ha): 58% | percentage phytotoxicity CHEAL ([7]; 0.625 g/ha): 5% | percentage phytotoxicity CHEAL ([7]; 1.25 g/ha): 15% | percentage phytotoxicity CHEAL ([7]; 2.5 g/ha): 30% | percentage phytotoxicity CHEAL ([7]; 5 g/ha): 55% | percentage phytotoxicity CHEAL ([7]; 10 g/ha): 65% | percentage phytotoxicity ALOMY ([8]; 0.625 g/ha): 0% | percentage phytotoxicity ALOMY ([8]; 1.25 g/ha): 3% | percentage phytotoxicity ALOMY ([8]; 2.5 g/ha): 0% | percentage phytotoxicity ALOMY ([8]; 5 g/ha): 5% | percentage phytotoxicity ALOMY ([8]; 10 g/ha): 0% | percentage phytotoxicity LOLPE ([9]; 0.625 g/ha): 0% | percentage phytotoxicity LOLPE ([9]; 1.25 g/ha): 5% | percentage phytotoxicity LOLPE ([9]; 2.5 g/ha): 0% | percentage phytotoxicity LOLPE ([9]; 5 g/ha): 5% | percentage phytotoxicity LOLPE ([9]; 10 g/ha): 0% | percentage phytotoxicity IPOHE ([10]; 0.625 g/ha): 5% | percentage phytotoxicity IPOHE ([10]; 1.25 g/ha): 15% | percentage phytotoxicity IPOHE ([10]; 2.5 g/ha): 20% | percentage phytotoxicity IPOHE ([10]; 5 g/ha): 45% | percentage phytotoxicity IPOHE ([10]; 10 g/ha): 55%

Cc1ccc2ccc(C)c(C3C(=O)C(Cl)=NN(C)C3=O)c2c1 (centres unmarked) [A-I]
percentage phytotoxicity SETFA ([1]; 0.625 g/ha): 0% | percentage phytotoxicity SETFA ([1]; 1.25 g/ha): 0% | percentage phytotoxicity SETFA ([1]; 5 g/ha): 43% | percentage phytotoxicity SETFA ([1]; 10 g/ha): 72% | percentage phytotoxicity DIGSA ([2]; 0.625 g/ha): 0% and 1% | percentage phytotoxicity DIGSA ([2]; 1.25 g/ha): 0% | percentage phytotoxicity DIGSA ([2]; 2.5 g/ha): 3% and 0% | percentage phytotoxicity DIGSA ([2]; 5 g/ha): 22% and 21% | percentage phytotoxicity ABUTH ([3]; 0.625 g/ha): 6% | percentage phytotoxicity ABUTH ([3]; 2.5 g/ha): 21% | percentage phytotoxicity ABUTH ([3]; 5 g/ha): 58% and 55% | percentage phytotoxicity ABUTH ([3]; 10 g/ha): 60% | percentage phytotoxicity STEME ([4]; 0.625 g/ha): 34% | percentage phytotoxicity STEME ([4]; 1.25 g/ha): 64% and 58% | percentage phytotoxicity STEME ([4]; 2.5 g/ha): 66% | percentage phytotoxicity STEME ([4]; 5 g/ha): 79% | percentage phytotoxicity STEME ([4]; 10 g/ha): 84% | percentage phytotoxicity ECHCG ([5]; 0.625 g/ha): 0% | percentage phytotoxicity ECHCG ([5]; 1.25 g/ha): 0% | percentage phytotoxicity ECHCG ([5]; 2.5 g/ha): 8% | percentage phytotoxicity ECHCG ([5]; 5 g/ha): 39% | percentage phytotoxicity ECHCG ([5]; 10 g/ha): 64% | percentage phytotoxicity AMARE ([6]; 0.625 g/ha): 14% | percentage phytotoxicity AMARE ([6]; 1.25 g/ha): 44% | percentage phytotoxicity AMARE ([6]; 2.5 g/ha): 70% | percentage phytotoxicity AMARE ([6]; 5 g/ha): 74% | percentage phytotoxicity AMARE ([6]; 10 g/ha): 73% | percentage phytotoxicity CHEAL ([7]; 0.625 g/ha): 6% | percentage phytotoxicity CHEAL ([7]; 2.5 g/ha): 13% and 16% | percentage phytotoxicity CHEAL ([7]; 5 g/ha): 28% and 26% | percentage phytotoxicity ALOMY ([8]; 0.625 g/ha): 0% | percentage phytotoxicity ALOMY ([8]; 1.25 g/ha): 0% | percentage phytotoxicity ALOMY ([8]; 2.5 g/ha): 0% | percentage phytotoxicity ALOMY ([8]; 5 g/ha): 9% and 0% | percentage phytotoxicity ALOMY ([8]; 10 g/ha): 21% | percentage phytotoxicity LOLPE ([9]; 0.625 g/ha): 0% and 3% | percentage phytotoxicity LOLPE ([9]; 1.25 g/ha): 0% and 3% | percentage phytotoxicity LOLPE ([9]; 2.5 g/ha): 3% and 1% | percentage phytotoxicity LOLPE ([9]; 10 g/ha): 43% and 35% | percentage phytotoxicity IPOHE ([10]; 0.625 g/ha): 13% | percentage phytotoxicity IPOHE ([10]; 2.5 g/ha): 53% and 48% | percentage phytotoxicity IPOHE ([10]; 5 g/ha): 63% | percentage phytotoxicity IPOHE ([10]; 10 g/ha): 74%
